# Results as given in patent US5047406A, “Substituted cyclohexanols as central nervous system agents” (Warner-Lambert Co., priority 1990, dated 1991).
# Where two headings read alike, the source gives them in different places.
# Legend:
# [1] = molecular target: T1, [^3 H]-Spiroperidol Binding (Homo sapiens, UniProt P14416); assay: Inhibition of [^3 H]-spiroperidol binding in a receptor assay
# T1 construct: receptor assay described by D. Grigoriadis and P. Seeman, Journal of Neurochemistry, Volume 44, pages 1925-1935 (1985); from tissue
# T1 sequence (P14416 whole entry): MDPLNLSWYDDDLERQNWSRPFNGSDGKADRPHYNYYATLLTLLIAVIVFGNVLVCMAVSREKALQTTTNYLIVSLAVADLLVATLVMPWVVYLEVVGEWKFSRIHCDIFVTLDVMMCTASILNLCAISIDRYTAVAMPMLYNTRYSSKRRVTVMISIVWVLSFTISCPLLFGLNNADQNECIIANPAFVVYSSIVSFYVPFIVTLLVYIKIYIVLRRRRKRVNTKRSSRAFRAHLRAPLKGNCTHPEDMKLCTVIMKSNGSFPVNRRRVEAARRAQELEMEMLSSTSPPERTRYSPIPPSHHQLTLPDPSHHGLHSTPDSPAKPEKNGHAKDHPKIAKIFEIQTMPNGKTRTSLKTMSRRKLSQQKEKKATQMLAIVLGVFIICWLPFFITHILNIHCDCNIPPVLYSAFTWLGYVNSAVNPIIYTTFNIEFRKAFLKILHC
# Source text: (§1) The above test methods are incorporated herein by reference.
# [2] = tested on: Brain Striatal Dopamine Synthesis; assay: Effects on brain striatal dopamine synthesis in rats; assay type: in vivo; settings: for inhibition in vivo at 10 mg/kg: Rattus norvegicus; for Effects on Brain Striatal Dopamine Synthesis in Rats, % inhibition: 10 mg/kg
# Source text: as §1
# [3] = tested on: Locomotor Activity in Mice; assay: Inhibition of locomotor activity in mice; assay type: in vivo; settings: for ED50: Mus musculus, ip; for Inhibition of Locomotor Activity in Mice ED50: IP
# Source text: as §1
# [4] = molecular target: sigma opiate binding site; assay: Inhibition of [^3 H] DTG (ditoluoyl guanidine; a sigma ligand) binding
# Method: The compounds of Formula I are valuable dopaminergic agents. […] Thus, the compounds of Formula I were tested for their ability to inhibit locomotor activity in mice according to the assay described by J. R. McLean, et al, Pharmacology, Biochemistry and Behavior, Volume 8, pages 97-99 (1978); for their ability to inhibit [[…] ]-spiroperidol binding in a receptor assay described by D. Grigoriadis and P. Seeman, Journal of Neurochemistry, Volume 44, pages 1925-1935 (1985); and for their ability to inhibit dopamine synthesis in rats according to the protocol described by J. R. Walters and R. H. Roth, Naunyn-Schmiedeberg's Archives of Pharmacology, Volume 296, pages 5-14 (1976). The above test methods are incorporated herein by reference. The data in the table show the dopaminergic activity of representative compounds of Formula I. Additionally, the compounds of Formula I are ligands for the sigma opiate binding site. The data in the table show the inhibition of [^3 H] DTG (ditoluoyl guanidine; a sigma ligand) binding by representative compounds of Formula I, according to the method of E. Weber, et al, Proceedings of the National Academy of Sciences, USA, Volume 83, pages 8784-8788 (1986).
# [5] = read-out: Inhibition of [^3 H]-Spiroperidol Binding IC50
# [6] = Inhibition of [^3 H]-Spiroperidol Binding IC50
SMILES,"IC50 [1, 5]",inhibition in vivo at 10 mg/kg ([2]; ip),ED50 [3],inhibition in vivo at 10 mg/kg ([2]; IP),other results
"O=C(N[C@H]1CC[C@H](N2CCN(c3ccccn3)CC2)CC1)c1ccccc1 [Example 40, trans N-[4-[4-(2-Pyridinyl)-1-piperazinyl]cyclohexyl]benzamide]",2800 nM,65%,0.36 mg/kg,,
"COc1ccc(C2(O)CCC(CCN3CCN(c4ccccn4)CC3)CC2)cc1 (stereo not drawn) [Example 8, cis-1-(4-Methoxyphenyl)-4-[2-[4-(2-pyridinyl)-1-piperazinyl]ethyl]cyclohexanol]",169 nM,,,,"Effects on Brain Striatal Dopamine Synthesis in Rats, % inhibition ([2]; IP): 88%; Inhibition of Locomotor Activity in Mice ED50 [3]: 0.9 mg/kg"
"O=C(N[C@H]1CC[C@H](CCN2CC=C(c3ccccc3)CC2)CC1)c1ccccc1 [Example 72, trans N-[4-[2-(3,6-Dihydro-4-phenyl-1(2H)-pyridinyl)ethyl]cyclohexyl]benzamide]",,,0.27 mg/kg,74%,"IC50 [1, 6]: 100 nM"
"CC(=O)N[C@H]1CC[C@H](CCN2CCN(c3ccccn3)CC2)CC1 [Example 58, trans N-[4-[2-[4-(2-Pyridinyl)-1-piperazinyl]ethyl]cyclohexyl]acetamide]",,87%,0.03 mg/kg,,
"O=C(N[C@H]1CC[C@H](N2CC=C(c3ccccc3)CC2)CC1)c1cccnc1 [Example 49, trans N-[4-(3,6-Dihydro-4-phenyl-1(2H)-pyridinyl)cyclohexyl]-3-pyridinecarboxamide]",600 nM,,2.4 mg/kg,72%,
"O=C(N[C@H]1CC[C@H](N2CC=C(c3ccccc3)CC2)CC1)c1ccsc1 [Example 48, trans N-[4-(3,6-Dihydro-4-phenyl-1(2H)-pyridinyl)cyclohexyl]-3-thiophenecarboxamide]",,,0.27 mg/kg,88%,"IC50 [1, 6]: 90 nM"
"Cc1ccc(C(=O)N[C@H]2CC[C@H](CCN3CCN(c4ccccn4)CC3)CC2)cc1 [Example 54, trans 4-Methyl-N-[4-[2-[4-(2-pyridinyl)-1-piperazinyl]ethyl]cyclohexyl]benzamide]",290 nM,0%,0.11 mg/kg,,
"O=C(N[C@H]1CC[C@H](CN2CCN(c3ccccn3)CC2)CC1)c1ccccc1 [Example 60, trans N-[4-[[4-(2-Pyridinyl)-1-piperazinyl]methyl]cyclohexyl]benzamide]",,36%,1 mg/kg,,
"OC1(c2ccccn2)CCC(CCN2CC=C(c3ccccc3)CC2)CC1 (stereo not drawn) [Example 11, cis-1-(2-Pyridinyl)-4-[2-[3,6-dihydro-4-phenyl-1(2H)-pyridinyl]ethyl]cyclohexanol]",156 nM,,0.64 mg/kg,,IC50 [4]: 3.5 nM
"OC1(c2cccnc2)CCC(CCN2CC=C(c3ccccc3)CC2)CC1 (stereo not drawn) [Example 12, cis-1-(3-Pyridinyl)-4-[2-[3,6-dihydro-4-phenyl-1(2H)-pyridinyl]ethyl]cyclohexanol]",116 nM,,0.25 mg/kg,79%,
"O=C(N[C@H]1CC[C@H](CCN2CCN(c3ccccn3)CC2)CC1)c1ccc(Cl)c(Cl)c1 [Example 59, trans 3,4-Dichloro-N-[4-[2-[4-(2-pyridinyl)-1-piperazinyl]ethyl]cyclohexyl]benzamide]",,7%,14.4 mg/kg,,
"CN(C(=O)c1ccccc1)[C@H]1CC[C@H](N2CCN(c3ccccn3)CC2)CC1 [Example 42, trans N-Methyl-N-[4-[4-(2-pyridinyl)-1-piperazinyl]cyclohexyl]benzamide]",4840 nM,15%,2.4 mg/kg,,
"OC1(c2ccc(F)cc2)CCC(CCN2CCN(c3ccccn3)CC2)CC1 (stereo not shown) [Example 7, 1-(4-Fluorophenyl)-4-[2-[4-(2-pyridinyl)-1-piperazinyl]ethyl]cyclohexanol]",,48%,0.64 mg/kg,,IC50 [4]: 16.5 nM; inhibition at 10 µM ([1]; at 10^-5 M): 94%
"OC1(c2ccsc2)CCC(CCN2CCN(c3ccccn3)CC2)CC1 (stereo not shown) [Example 14, 4-[2-[4-(2-Pyridinyl)-1-piperazinyl]ethyl]-1-(3-thienyl)cyclohexanol]",312 nM,37%,0.48 mg/kg,,IC50 [4]: 4.5 nM
"O=C(N[C@H]1CC[C@@H](CCN2CCN(c3ccccn3)CC2)CC1)c1ccccc1 [Example 53, cis N-[4-[2-[4-(2-Pyridinyl)-1-piperazinyl]ethyl]cyclohexyl]benzamide]",3280 nM,36%,4.5 mg/kg,,
"OC1(c2cccs2)CCC(CCN2CCN(c3ccccn3)CC2)CC1 (stereo not drawn) [Example 3, cis-4-[2-[4-(2-Pyridinyl)-1-piperazinyl]ethyl]-1-(2-thienyl)cyclohexanol]",262 nM,67%,1.3 mg/kg,,IC50 [4]: 6 nM
"OC1(c2cccs2)CCC(CCN2CCN(c3ccccn3)CC2)CC1 (stereo not drawn) [Example 4, trans-4-[2-[4-(2-Pyridinyl)-1-piperazinyl]ethyl]-1-(2-thienyl)cyclohexanol]",341 nM,,,,"IC50 [4]: 5 nM; Effects on Brain Striatal Dopamine Synthesis in Rats, % inhibition ([2]; IP): 47%; Inhibition of Locomotor Activity in Mice ED50 [3]: 1.1 mg/kg"
"O=C(N[C@H]1CC[C@H](N2CC=C(c3ccccc3)CC2)CC1)c1ccccc1 [Example 46, trans N-[4-(3,6-Dihydro-4-phenyl-1(2H)-pyridinyl)cyclohexyl]benzamide]",360 nM,,0.16 mg/kg,95%,
"O=C(N[C@H]1CC[C@H](N2CC=C(c3ccccc3)CC2)CC1)c1cccs1 [Example 47, trans N-[4-(3,6-Dihydro-4-phenyl-1(2H)-pyridinyl)cyclohexyl]-2-thiophenecarboxamide]",300 nM,,0.23 mg/kg,74%,
"O=C(N[C@H]1CC[C@H](CCN2CC=C(c3ccccc3)CC2)CC1)c1cccs1 [Example 71, trans N-[4-[2-(3,6-Dihydro-4-phenyl-1(2H)-pyridinyl)ethyl]cyclohexyl]-2-thiophenecarboxamide]",210 nM,,0.21 mg/kg,79%,
"O=C(N[C@H]1CC[C@H](CCN2CCN(c3ccccn3)CC2)CC1)c1ccccc1 [Example 52, trans N-[4-[2-[4-(2-Pyridinyl)-1-piperazinyl]ethyl]cyclohexyl]benzamide]",440 nM,87%,0.16 mg/kg,,
"OC1(c2ccccc2)CCC(CCN2CCN(c3ccccn3)CC2)CC1 (stereo not shown) [Example 5, 1-Phenyl-4-[2-[4-(2-pyridinyl)-1-piperazinyl]ethyl]cyclohexanol]",537 nM,35%,1.8 mg/kg,,
"COc1ccc(C2(O)CCC(CCN3CCN(c4ccccn4)CC3)CC2)cc1 (stereo not drawn) [Example 15, trans-1-(4-Methoxyphenyl)-4-[2-[4-(2-pyridinyl)-1-piperazinyl]ethyl]cyclohexanol]",932 nM,,,,"Effects on Brain Striatal Dopamine Synthesis in Rats, % inhibition ([2]; IP): 52%; Inhibition of Locomotor Activity in Mice ED50 [3]: 0.3 mg/kg"
